According to ChEMBL document CHEMBL4813945, “Discovery and development of novel pyrimidine and pyrazolo/thieno-fused pyrimidine derivatives as potent and orally active inducible nitric oxide synthase dimerization inhibitor with efficacy for arthritis” (Eur J Med Chem, 2021):
Active and inactive are the calls of the source. No cut-off for these calls is given here.

Key:
[1] = Acute toxicity in rat assessed as weight loss at 2000 mg/kg, IG administered as single dose; format: organism-based; details: in vivo, po
[2] = Metabolic stability in rat hepatocytes assessed as intrinsic clearance incubated up to 120 mins measured per million cells by LC-MS/MS analysis; format: ADME, cell-based, Hepatocyte; details: read-out: CLH
Rattus norvegicus [3] = test: Antiinflammatory activity in complete freund's adjuvant-induced male Sprague-Dawley rat model of arthritis assessed as reduction in synovial hyperplasia at 80 mg/kg, IG after 4 weeks by H and E staining based histopathological analysis; format: functional, organism-based
Rattus norvegicus [4] = test: Antiinflammatory activity in complete freund's adjuvant-induced male Sprague-Dawley rat model of arthritis assessed as reduction in ankle joint swelling at 40 to 80 mg/kg, IG administered once daily for 2 to 4 weeks; format: functional, organism-based; details: dose 40-80 mg/kg, time 2-4 weeks
RAW264.7 = test: Cytotoxicity against mouse RAW 264.7 cells assessed as cell viability by MTT assay; format: cell-based
Rattus norvegicus [5] = test: Antiinflammatory activity in complete freund's adjuvant-induced male Sprague-Dawley rat model of arthritis assessed as improved cartilage destruction at 80 mg/kg, IG after 4 weeks by H and E staining based histopathological analysis; format: functional, organism-based
[6] = Acute toxicity in rat assessed as drowsiness at 2000 mg/kg, IG administered as single dose; format: organism-based; details: in vivo, po
[7] = Oral bioavailability in Sprague-Dawley rat at 10 mg/kg measured after 0.25 to 24 hrs hrs by LC-MS/MS analysis; format: ADME, organism-based; details: in vivo, time 0.25-24 hrs
[8] = Metabolic stability in human hepatocytes assessed as parent compound remaining after 120 mins by LC-MS/MS analysis; format: ADME, cell-based, Hepatocyte; details: read-out: Stabilty
[9] = Subacute toxicity in rat assessed as change in body weight at 100 to 500 mg/kg, IG administered every other day for 14 days and measured every 2 days; format: organism-based; details: in vivo, po, 336 h, dose 100-500 mg/kg, time 14 day
[10] = Subacute toxicity in rat assessed as lung damage at 100 to 500 mg/kg, IG administered every other day for 14 days and measured every 2 days by H and E staining; format: organism-based; details: in vivo, po, 336 h, dose 100-500 mg/kg, time 14 day
Cytochrome P450 1A2 = target: T1, Cytochrome P450 1A2 (Homo sapiens, UniProt P05177); test: Inhibition of CYP1A2 in human liver microsomes using Phenacetin as substrate measured after 20 mins by LC-MS/MS analysis; format: ADME
T1 sequence (P05177 whole entry): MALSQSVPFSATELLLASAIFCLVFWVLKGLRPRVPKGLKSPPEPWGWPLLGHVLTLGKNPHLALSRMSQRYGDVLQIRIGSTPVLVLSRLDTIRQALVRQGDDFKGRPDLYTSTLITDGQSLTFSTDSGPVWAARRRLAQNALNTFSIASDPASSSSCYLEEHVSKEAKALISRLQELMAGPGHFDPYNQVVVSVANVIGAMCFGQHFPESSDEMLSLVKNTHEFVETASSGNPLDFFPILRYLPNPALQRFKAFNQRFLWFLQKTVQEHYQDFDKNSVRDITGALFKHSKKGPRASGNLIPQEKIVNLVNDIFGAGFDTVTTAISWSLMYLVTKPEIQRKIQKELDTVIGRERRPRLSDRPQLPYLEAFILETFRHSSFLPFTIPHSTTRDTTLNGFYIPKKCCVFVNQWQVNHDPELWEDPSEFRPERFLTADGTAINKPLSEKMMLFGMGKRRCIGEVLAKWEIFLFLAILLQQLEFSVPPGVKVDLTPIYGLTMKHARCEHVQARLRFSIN

CYP3A4/5 = CYP3A4/5 (Homo sapiens, UniProt P08684+P20815); test: Inhibition of CYP3A4/5 in human liver microsomes using Midazolam as substrate measured after 20 mins by LC-MS/MS analysis; format: ADME; details: probe Midazolam
Rattus norvegicus [11] = test: Antiinflammatory activity in complete freund's adjuvant-induced male Sprague-Dawley rat model of arthritis assessed as reduction in synovial hyperplasia at 40 to 80 mg/kg, IG after 2 weeks by Safranin O staining based histopathological analysis; format: functional, organism-based; details: dose 40-80 mg/kg
[12] = Acute toxicity in rat assessed as anorexia at 2000 mg/kg, IG administered as single dose; format: organism-based; details: in vivo, po
[13] = Acute toxicity in IG dosed rat assessed as maximum tolerated dose; format: organism-based; details: in vivo, po
[14] = target: T2, Nitric oxide synthase, inducible (Mus musculus, UniProt P29477); test: Inhibition of LPS induced NO-dependent iNOS activity in mouse RAW 264.7 cells preincubated for 1 hrs followed by LPS stimulation and measured after 24 hrs by Griess reagent based assay; format: cell-based, RAW264.7
T2 sequence (P29477 whole entry): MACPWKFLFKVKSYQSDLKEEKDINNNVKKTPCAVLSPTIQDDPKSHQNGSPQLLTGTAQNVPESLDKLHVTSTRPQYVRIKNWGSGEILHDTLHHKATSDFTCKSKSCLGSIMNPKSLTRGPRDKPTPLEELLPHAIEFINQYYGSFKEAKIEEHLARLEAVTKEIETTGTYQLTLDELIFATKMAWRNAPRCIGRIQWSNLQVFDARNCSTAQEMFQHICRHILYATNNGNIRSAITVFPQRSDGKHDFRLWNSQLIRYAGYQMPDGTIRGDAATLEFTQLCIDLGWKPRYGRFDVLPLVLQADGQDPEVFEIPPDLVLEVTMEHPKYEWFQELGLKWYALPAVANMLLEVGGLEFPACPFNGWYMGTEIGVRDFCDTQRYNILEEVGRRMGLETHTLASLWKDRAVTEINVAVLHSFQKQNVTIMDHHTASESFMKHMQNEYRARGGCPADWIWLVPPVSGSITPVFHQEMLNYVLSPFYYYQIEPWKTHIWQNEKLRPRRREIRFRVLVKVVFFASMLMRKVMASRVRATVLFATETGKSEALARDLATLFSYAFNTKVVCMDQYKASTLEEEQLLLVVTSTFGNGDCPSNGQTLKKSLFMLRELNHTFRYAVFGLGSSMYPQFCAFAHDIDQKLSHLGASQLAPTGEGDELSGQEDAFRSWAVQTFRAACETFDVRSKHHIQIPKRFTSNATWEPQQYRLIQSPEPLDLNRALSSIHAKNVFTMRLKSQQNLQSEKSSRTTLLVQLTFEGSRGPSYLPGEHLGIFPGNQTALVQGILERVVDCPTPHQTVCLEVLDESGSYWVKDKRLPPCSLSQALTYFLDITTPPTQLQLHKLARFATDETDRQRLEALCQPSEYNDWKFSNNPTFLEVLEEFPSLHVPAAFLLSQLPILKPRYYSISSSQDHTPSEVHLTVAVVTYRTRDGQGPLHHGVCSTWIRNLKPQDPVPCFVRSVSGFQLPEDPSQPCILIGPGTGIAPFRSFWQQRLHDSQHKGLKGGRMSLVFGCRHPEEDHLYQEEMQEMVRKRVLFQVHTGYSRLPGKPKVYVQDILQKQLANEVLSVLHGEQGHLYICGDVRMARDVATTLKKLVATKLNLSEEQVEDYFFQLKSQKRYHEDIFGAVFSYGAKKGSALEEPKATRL

[15] = Tmax in Sprague-Dawley rat at 10 mg/kg, po measured after 0.25 to 24 hrs by LC-MS/MS analysis; format: ADME, organism-based; details: in vivo, time 0.25-24 hrs
[16] = Cmax in Sprague-Dawley rat at 1 mg/kg, iv measured after 0.08 to 24 hrs by LC-MS/MS analysis; format: ADME, organism-based; design: route intravenous, time upper 24 hrs, dose 1 mg/kg, time lower 0.08 hrs; details: in vivo

For `COc1cc(/C=C/c2nc(NCc3ccc(C)cc3)c3sccc3n2)cc(OC)c1OC`, the Activity [1] was “Non-Toxic”, the hepatocyte CLint [2] was 12.6 µL/min/1e6 cells and the Activity (Rattus norvegicus [3]) was “Active”. The Activity (Rattus norvegicus [4]) was “Active”, the IC50 (RAW264.7) was over 50 µM and the Activity (Rattus norvegicus [5]) was “Active”. The Activity [6] was “Non-Toxic”, the bioavailability [7] was 29.9% and the remaining at 2 h [8] was 77.5%. For the same compound, the Activity [9] was “Toxic”, the Activity [10] was “Non-Toxic” and the IC50 (Cytochrome P450 1A2) was 42.2 µM. For the same compound, the IC50 at 20 min (CYP3A4/5) was over 50 µM, the Activity (Rattus norvegicus [11]) was “Active” and the Activity [12] was “Non-Toxic”. It also gave an MTD [13] of 2000 mg/kg, an IC50 [14] of 0.96 µM and a Tmax [15] of 3.33 h. It also gave a Cmax [16] of 388 ng/mL.
